{
  "source": "patent US20170157212A1",
  "about": "“CDK MODULATORS AND METHODS FOR THE TREATMENT OF CANCER” (Salk Institute for Biological Studies, priority 2015, published 2017)",
  "key": {"[1]": {"system": "eIF4G-bound mRNAs in U2OS cells", "assay": "RIP-seq of eIF4G-bound mRNAs", "format": "cell-based, human", "conditions": "transcriptional targets excluded", "experimental": "All steps were conducted at 4° C. in RNase-free conditions. U20S cells (5×10^6) were transfected with the indicated siRNAs and washed twice with cold PBS. […] Reverse transcription and qRT-PCR for quantitative RNA analysis was carried out as described above.\nAll steps were conducted at 4° C. in RNase-free conditions. […] Reverse transcription and qRT-PCR for quantitative RNA analysis was carried out as described above.\nHigh throughput sequencing was performed. For detail of analysis, sequenced reads were quality-tested using FASTQC and aligned to the hg19 human genome using the STAR aligner version 2.4.0 k (Dobin et al., Bioinformatics. 2013; 29(1):15-21. doi: 10.1093/bioinformatics/bts635. pmid:23104886). Mapping was carried out using default parameters (up to 10 mismatches per read, and up to 9 multi-mapping locations per read). […] Raw gene expression was quantified across all gene exons (RNA-Seq) or across gene bodies (RIP-Seq), using the top-expressed isoform as proxy for gene expression, and differential gene expression was carried out using the edgeR package version 3.6.8 (Robinson et al. (2010) Bioinformatics, 26, pp. 1) using duplicates to compute within-group dispersion. […]"}, "[2]": {"system": "CHK1, RPL26, TMA7 gene promoters in U2OS cells", "assay": "Chromatin immunoprecipitation (ChIP) at CDK12 target gene promoters", "format": "cell-based, human", "conditions": "12 hr treatment", "experimental": "Briefly, 5×10^6 cells were twice washed with ice-cold PBS and serially cross-linked with 2 mM DSG (Disuccinimidylglutarate) for 20 min and 1% (v/v) formaldehyde for 10 min at room temperature. The cross-linking reaction was stopped by adding glycine to a final concentration of 0.125 M for 10 min at room temperature. Cells were washed twice with cold PBS. […] ChIP DNA is analyzed by SYBR® Green master mixes (Life Technologies) using described primer sets. qPCR is carried out in the ABI7300 (Applied Biosystems) with a 10 min DNA denaturation step at 95° C., followed by 40 cycles of 15 s at 95° C., 60 s at 60° C. […]\nChIP experiments were carried out as described in the previous report. […] ChIP DNA is analyzed by SYBR® Green master mixes (Life Technologies) using described primer sets. qPCR is carried out in the ABI7300 (Applied Biosystems) with a 10 min DNA denaturation step at 95° C., followed by 40 cycles of 15 s at 95° C., 60 s at 60° C. […]"}, "U2OS cells [3]": {"system": "U2OS cells", "conditions": "CDK12 siRNA, 1 μM for 12 hr", "procedure": "Top panel: U2OS cells were treated with tBHQ (tert-Butylhydroquinone) 100 μM for 4 h, and cell extracts were analyzed by co-immunoprecipitation with anti-CDK12 antisera for association of CRIF1 or CCNK."}, "U2OS cells [4]": {"system": "U2OS cells", "assay": "Immunoblot of CDK12 substrate phosphorylation under oxidative stress", "format": "cell-based, human", "conditions": "100 μM for 4 h", "experimental": "(§1) FIGS. 7A-7F. […] (F) Oxidative stress activates the CDK12 pathway.\n(§2) CDK12 was also recently shown to be essential for NRF2-dependent transcription (Li et al., Sci Rep 6, 21455, 2016). To examine whether CDK12 activity is regulated globally by oxidative stress in human cells, U2OS cells were treated with tBHQ (tert-butylhydroquinone) to induce mitochondrial oxidative stress. […] In contrast, oxidative stress had no effect on the interaction of CCNK with CDK12."}, "[5]": {"system": "CRIF1-CDK12 interaction in U2OS cells", "assay": "Co-immunoprecipitation of CRIF1 with CDK12:CCNK under oxidative stress", "format": "cell-based, human", "conditions": "100 μM for 4 h, reciprocal co-immunoprecipitation", "experimental": "as §1, §2"}, "Cdk12": {"molecular_target": "Cdk12 (Homo sapiens, UniProt Q9NYV4)", "sequence (Q9NYV4 whole entry)": "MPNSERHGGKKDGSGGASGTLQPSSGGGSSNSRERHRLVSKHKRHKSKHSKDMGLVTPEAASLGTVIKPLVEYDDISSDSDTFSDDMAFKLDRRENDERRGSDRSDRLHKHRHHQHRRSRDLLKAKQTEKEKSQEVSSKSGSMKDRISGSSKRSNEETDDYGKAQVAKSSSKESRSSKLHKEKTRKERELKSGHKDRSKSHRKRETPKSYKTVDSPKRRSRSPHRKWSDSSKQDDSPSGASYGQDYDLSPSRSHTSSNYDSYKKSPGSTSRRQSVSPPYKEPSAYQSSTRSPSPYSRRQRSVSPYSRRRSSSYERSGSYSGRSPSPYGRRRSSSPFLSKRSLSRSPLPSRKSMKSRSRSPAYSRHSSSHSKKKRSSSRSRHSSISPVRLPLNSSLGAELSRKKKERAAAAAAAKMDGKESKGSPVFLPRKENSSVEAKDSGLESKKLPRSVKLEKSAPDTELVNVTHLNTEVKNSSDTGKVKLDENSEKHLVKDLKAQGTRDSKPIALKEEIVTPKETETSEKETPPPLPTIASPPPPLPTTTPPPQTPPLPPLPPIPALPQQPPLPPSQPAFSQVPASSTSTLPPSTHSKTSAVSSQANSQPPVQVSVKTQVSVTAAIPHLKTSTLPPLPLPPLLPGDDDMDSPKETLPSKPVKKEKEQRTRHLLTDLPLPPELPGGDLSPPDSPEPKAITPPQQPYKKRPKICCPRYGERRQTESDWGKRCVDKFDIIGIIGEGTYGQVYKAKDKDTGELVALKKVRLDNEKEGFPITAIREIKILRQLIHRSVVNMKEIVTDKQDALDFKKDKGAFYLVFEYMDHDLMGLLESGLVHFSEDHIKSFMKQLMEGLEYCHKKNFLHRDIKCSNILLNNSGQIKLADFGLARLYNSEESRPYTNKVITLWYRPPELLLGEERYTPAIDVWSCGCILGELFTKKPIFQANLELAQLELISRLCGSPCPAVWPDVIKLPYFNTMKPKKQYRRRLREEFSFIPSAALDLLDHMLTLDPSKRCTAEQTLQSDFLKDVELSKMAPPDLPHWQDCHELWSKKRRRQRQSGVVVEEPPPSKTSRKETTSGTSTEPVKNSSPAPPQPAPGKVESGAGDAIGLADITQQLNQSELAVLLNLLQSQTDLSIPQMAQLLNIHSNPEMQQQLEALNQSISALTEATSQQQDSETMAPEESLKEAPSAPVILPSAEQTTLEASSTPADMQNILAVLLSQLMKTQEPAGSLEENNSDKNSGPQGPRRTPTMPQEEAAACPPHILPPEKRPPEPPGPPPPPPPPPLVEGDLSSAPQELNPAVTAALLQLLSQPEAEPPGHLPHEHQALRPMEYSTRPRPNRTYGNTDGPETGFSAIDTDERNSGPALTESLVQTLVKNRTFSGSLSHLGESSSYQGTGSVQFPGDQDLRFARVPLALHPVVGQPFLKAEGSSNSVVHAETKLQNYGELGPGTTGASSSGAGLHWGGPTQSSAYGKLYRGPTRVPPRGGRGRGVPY", "sequence (O75909 whole entry partner)": "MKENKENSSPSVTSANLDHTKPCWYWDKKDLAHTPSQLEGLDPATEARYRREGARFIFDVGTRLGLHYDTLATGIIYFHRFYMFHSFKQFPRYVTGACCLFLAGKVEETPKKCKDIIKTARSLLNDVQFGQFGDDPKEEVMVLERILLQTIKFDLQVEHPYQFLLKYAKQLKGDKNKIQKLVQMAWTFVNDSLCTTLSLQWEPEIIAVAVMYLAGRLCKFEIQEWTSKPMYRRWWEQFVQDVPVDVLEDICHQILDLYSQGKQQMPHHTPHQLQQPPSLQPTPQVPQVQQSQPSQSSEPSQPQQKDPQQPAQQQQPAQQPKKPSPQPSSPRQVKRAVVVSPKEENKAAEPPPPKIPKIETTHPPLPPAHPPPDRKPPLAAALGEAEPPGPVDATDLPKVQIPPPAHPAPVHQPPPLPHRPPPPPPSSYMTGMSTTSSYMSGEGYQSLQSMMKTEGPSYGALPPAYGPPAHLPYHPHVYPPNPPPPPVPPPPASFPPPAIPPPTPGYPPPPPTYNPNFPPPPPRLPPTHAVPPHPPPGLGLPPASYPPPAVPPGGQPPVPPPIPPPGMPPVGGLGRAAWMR", "conditions": "have been shown (prior knowledge); cited from earlier work"}},
  "data": [
    {"smiles": "CO[C@H]1C[C@@H]2CC[C@@H](C)[C@@](O)(O2)C(=O)C(=O)N2CCCC[C@H]2C(=O)O[C@H]([C@H](C)C[C@@H]2CC[C@@H](O)[C@H](OC)C2)CC(=O)[C@H](C)/C=C(\\C)[C@@H](O)[C@@H](OC)C(=O)[C@H](C)C[C@H](C)/C=C/C=C/C=C/1C", "note": "[rapamycin]", "values": [
      {"measurement": "number of rapamycin-sensitive mRNAs that require mTORC1 to efficiently bind eIF4G", "setting": "[1]", "value": "2,961"}
    ]},
    {"smiles": "CC[C@H](C)[C@@H]1NC(=O)CNC(=O)[C@@H]2Cc3c([nH]c4cc(O)ccc34)[S+]([O-])C[C@@H](NC(=O)CNC1=O)C(=O)N[C@@H](CC(N)=O)C(=O)N1C[C@H](O)C[C@H]1C(=O)N[C@@H]([C@@H](C)[C@@H](O)CO)C(=O)N2", "note": "(stereo in doubt) [α-amanitin]", "values": [
      {"measurement": "association of eIF4E and 4E-BP1 at the CHK1 promoter", "setting": "[2]", "value": "largely abolished"},
      {"measurement": "occupancy of RNAPII or CDK12 at the CHK1 promoter", "setting": "[2]", "value": "without affecting"}
    ]},
    {"smiles": "O=C(c1cc(Cc2n[nH]c(=O)c3ccccc23)ccc1F)N1CCN(C(=O)C2CC2)CC1", "note": "[Olaparib, olaparib]", "values": [
      {"measurement": "cell survival with CDK12 depletion", "setting": "U2OS cells [3]", "value": "sensitizes"}
    ]},
    {"smiles": "CC(C)(C)c1cc(O)ccc1O", "note": "[tBHQ, tert-butylhydroquinone]", "values": [
      {"measurement": "RNAPII CTD-Ser2 and 4E-BP1 S65, T70 phosphorylation", "setting": "U2OS cells [4]", "value": "global increase"},
      {"measurement": "mTORC1-dependent 4E-BP1 T37/46 phosphorylation levels", "setting": "U2OS cells [4]", "value": "only modestly increased"},
      {"measurement": "association of CRIF1 with the CDK12:CCNK complex", "setting": "[5]", "value": "greatly reduced"}
    ]},
    {"smiles": "CN(C)C/C=C/C(=O)Nc1ccc(C(=O)Nc2cccc(Nc3ncc(Cl)c(-c4c[nH]c5ccccc45)n3)c2)cc1", "note": "[THZ1]", "values": [
      {"measurement": "inhibition of Cdk12 kinase activity", "setting": "Cdk12", "value": "modestly inhibit"}
    ]},
    {"smiles": "CN1CC[C@H](c2c(O)cc(O)c3c(=O)cc(-c4ccccc4Cl)oc23)[C@H](O)C1", "note": "[flavopiridol]", "values": [
      {"measurement": "inhibition of Cdk12 kinase activity", "setting": "Cdk12", "value": "modestly inhibit"}
    ]}
  ]
}
